Measured values reported in patent EP4707280A1, “1,4-CINEOLE DERIVATIVE AND INTERMEDIATE THEREOF, HERBICIDE CONTAINING SAID DERIVATIVE AS ACTIVE INGREDIENT, METHOD FOR USING HERBICIDE, AND METHOD FOR PREPARING AGROCHEMICAL COMPOSITION” (HOKKO CHEMICAL INDUSTRY CO., LTD., priority 2023, dated 2024).

Key:
Format in all cases: in vivo
[1] = tested on: Echinochloa crus-galli var. formosensis; experiment: Test Example 1: herbicidal effect test by soil application in paddy rice; conditions: 120 g active ingredient per 10 ares, applied immediately after sowing, flooded pots, 14 days after application; for pest or weed control at 1200 g/ha: Echinochloa crus-galli, soil, 336 h, read-out: weed inhibition rate
Method in brief: (§1)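 Paddy soil in Wagner pots (1/10,000 acre), fertilized and puddled; 30 seeds per species sown at 0–1 cm, flooded to ~3 cm, greenhouse. Water-diluted emulsifiable concentrate dropped onto flooded pots right after sowing at 120 g active ingredient per 10 ares.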

[2] = tested on: Scirpus juncoides; experiment: as above; conditions: 120 g active ingredient per 10 ares, applied immediately after sowing, flooded pots, 14 days after application; for pest or weed control at 1200 g/ha: Schoenoplectiella juncoides, soil, 336 h, read-out: weed inhibition rate
Method in brief: as §1

[3] = tested on: Echinochloa crus-galli var. formosensis; experiment: Test Example 6: herbicidal effect test by application during growth period of paddy rice (low dose); conditions: 7.5 g per 10 ares, applied seven days after sowing, flooded pots, 14 days after application; for inhibition at 75 g/ha: Echinochloa crus-galli, read-out: weed inhibition rate
Method in brief: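 Paddy soil in flooded Wagner pots (about 3 cm water), weeds sown at 0–1 cm, 30 seeds each, grown in a glass greenhouse. Seven days after sowing, water-diluted emulsifiable concentrate was dropped into the water at 7.5 g active ingredient per 10 ares. Weed inhibition rate (%) was scored 14 days after application, in duplicate.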

[4] = tested on: Echinochloa crus-galli; experiment: Test Example 8: herbicidal effect test by stem and leaf treatment in upland field (low dose); conditions: 7.5 g per 10 ares, sprayed seven days after sowing, upland soil, 14 days after application; for inhibition at 75 g/ha: Echinochloa crus-galli, read-out: weed inhibition rate
[5] = tested on: Digitaria ciliaris; experiment: as above; conditions: 7.5 g per 10 ares, sprayed seven days after sowing, upland soil, 14 days after application; for inhibition at 75 g/ha: Digitaria ciliaris, read-out: weed inhibition rate
[6] = tested on: Digitaria ciliaris; experiment: Test Example 4: herbicidal effect test by stem and leaf treatment in upland field; conditions: 120 g per 10 ares, sprayed seven days after sowing, upland soil, 14 days after application; for inhibition at 1200 g/ha: Digitaria ciliaris, read-out: weed inhibition rate
[7] = tested on: Echinochloa crus-galli; experiment: Test Example 7: herbicidal effect test by soil application in upland field (low dose); conditions: 7.5 g per 10 ares, sprayed one day after sowing, 14 days after application; for inhibition at 75 g/ha: Echinochloa crus-galli, read-out: weed inhibition rate
Method in brief: (§2)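 Pre-emergence soil application: upland alluvial loam pots sown with weed seeds mixed into the top 1 cm; one day after sowing, a water-diluted emulsifiable concentrate was sprayed on the soil at 100 L per 10 a, delivering 7.5 g active ingredient per 10 a. Weed inhibition rate (%) scored 14 days after application, duplicate pots.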

[8] = tested on: Digitaria ciliaris; experiment: as above; conditions: 7.5 g per 10 ares, sprayed one day after sowing, 14 days after application; for inhibition at 75 g/ha: Digitaria ciliaris, read-out: weed inhibition rate
Method in brief: as §2

[9] = tested on: Echinochloa crus-galli; experiment: Test Example 3: herbicidal effect test by soil application in upland field; conditions: 120 g per 10 ares, sprayed one day after sowing, 14 days after application; for inhibition at 1200 g/ha: Echinochloa crus-galli, read-out: weed inhibition rate
Method in brief: (§3)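 Pre-emergence test: seeds mixed into top 1 cm of alluvial loam upland soil in pots; emulsifiable concentrate diluted in water sprayed on soil one day after sowing at 100 L/10 a, 120 g a.i./10 a. Weed inhibition rate (%) scored at 14 days, in duplicate.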

[10] = tested on: Digitaria ciliaris; experiment: as above; conditions: 120 g per 10 ares, sprayed one day after sowing, 14 days after application; for inhibition at 1200 g/ha: Digitaria ciliaris, read-out: weed inhibition rate
Method in brief: as §3

[11] = tested on: Echinochloa crus-galli var. formosensis; experiment: Test Example 2: herbicidal effect test by application during growth period of paddy rice; conditions: 120 g per 10 ares, applied seven days after sowing, flooded pots, 14 days after application; for inhibition at 1200 g/ha: Echinochloa crus-galli, read-out: weed inhibition rate
Method in brief: (§4)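 Paddy soil in Wagner pots was puddled with N:P:K 16:16:16 fertilizer, sown with 30 weed seeds per species at 0–1 cm and flooded to about 3 cm. Seven days after sowing, a water-diluted emulsifiable concentrate was dropped onto the water at 120 g active ingredient per 10 ares. Weed inhibition (%) was scored at 14 days, in duplicate.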

[12] = tested on: Scirpus juncoides; experiment: as above; conditions: 120 g per 10 ares, applied seven days after sowing, flooded pots, 14 days after application; for inhibition at 1200 g/ha: Schoenoplectiella juncoides, read-out: weed inhibition rate
Method in brief: as §4

[13] = tested on: Echinochloa crus-galli var. formosensis; experiment: Test Example 5: herbicidal effect test by soil application in paddy rice (low dose); conditions: 7.5 g per 10 ares, applied immediately after sowing, flooded pots, 14 days after application; for inhibition at 75 g/ha: Echinochloa crus-galli, soil, 336 h, read-out: weed inhibition rate
Method in brief: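 Paddy soil in Wagner pots was fertilized (N:P:K 16:16:16), puddled, sown with 30 seeds per weed species at 0–1 cm, then flooded to ~3 cm in a glass greenhouse. Emulsifiable concentrate diluted in water was dropper-applied into floodwater immediately, at 7.5 g active ingredient per 10 ares; duplicates, scored at 14 days.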

[14] = tested on: Echinochloa crus-galli; experiment: Test Example 4: herbicidal effect test by stem and leaf treatment in upland field; conditions: 120 g per 10 ares, sprayed seven days after sowing, upland soil, 14 days after application; for inhibition at 1200 g/ha: Echinochloa crus-galli, read-out: weed inhibition rate

CC(C)[C@]12C[C@@H](OCc3cccs3)[C@](C)(C[C@@H]1Cl)O2 [1-661, (1R,2S,4S,5R)-2-chloro-1-isopropyl-4-methyl-5-(2-thienylmethoxy)-7-oxabicyclo[2.2.1]heptane]
≥ 80%: pest or weed control at 1200 g/ha [1] | pest or weed control at 1200 g/ha [2] | inhibition at 75 g/ha [3] | inhibition at 75 g/ha [4] | inhibition at 75 g/ha [5] | inhibition at 1200 g/ha [6] | inhibition at 75 g/ha [7] | inhibition at 75 g/ha [8] | inhibition at 1200 g/ha [9] | inhibition at 1200 g/ha [10] | inhibition at 1200 g/ha [11] | inhibition at 1200 g/ha [12] | inhibition at 75 g/ha [13] | inhibition at 1200 g/ha [14]

CC(C)[C@]12C[C@@H](OCc3ccccc3Cl)[C@](C)(C[C@@H]1I)O2 [1-756, (1R,2S,4S,5R)-5-[(2-chlorophenyl)methoxy]-2-iodo-1-isopropyl-4-methyl-7-oxabicyclo[2.2.1]heptane]
≥ 80%: pest or weed control at 1200 g/ha [1] | pest or weed control at 1200 g/ha [2] | inhibition at 75 g/ha [3] | inhibition at 75 g/ha [4] | inhibition at 75 g/ha [5] | inhibition at 1200 g/ha [6] | inhibition at 75 g/ha [7] | inhibition at 75 g/ha [8] | inhibition at 1200 g/ha [9] | inhibition at 1200 g/ha [10] | inhibition at 1200 g/ha [11] | inhibition at 1200 g/ha [12] | inhibition at 75 g/ha [13] | inhibition at 1200 g/ha [14]

CC(C)[C@]12C[C@@H](OCc3ccccn3)[C@](C)(C[C@@H]1I)O2 [1-785, 2-[[(18,2R,4R,58)-5-iodo-4-isopropyl-1-methyl-7-oxabicyclo[2.2.1]heptan-2-yl]oxymethyl]pyridine]
≥ 80%: weed inhibition rate [1] | weed inhibition rate [2] | weed inhibition rate [3] | weed inhibition rate [4] | weed inhibition rate [5] | weed inhibition rate [6] | weed inhibition rate [7] | weed inhibition rate [8] | weed inhibition rate [9] | weed inhibition rate [10] | weed inhibition rate [11] | weed inhibition rate [12] | weed inhibition rate [13] | weed inhibition rate [14]

CO[C@H]1C[C@]2(C)O[C@@]1(C(C)C)C[C@H]2OCc1ccccc1 [1-150, (1R,2S,4S,5R)-5-benzyloxy-1-isopropyl-2-methoxy-4-methyl-7-oxabicyclo[2.2.1]heptane]
≥ 80%: pest or weed control at 1200 g/ha [1] | pest or weed control at 1200 g/ha [2] | inhibition at 75 g/ha [3] | inhibition at 75 g/ha [4] | inhibition at 75 g/ha [5] | inhibition at 1200 g/ha [6] | inhibition at 75 g/ha [7] | inhibition at 75 g/ha [8] | inhibition at 1200 g/ha [9] | inhibition at 1200 g/ha [10] | inhibition at 1200 g/ha [11] | inhibition at 1200 g/ha [12] | inhibition at 75 g/ha [13] | inhibition at 1200 g/ha [14]

Cc1cccc(C)c1COC1CC2(C(C)C)OC1(C)CC2I (stereo not shown) [1-1445, 5-[(2,6-dimethylphenyl)methoxy]-2-iodo-1-isopropyl-4-methyl-7-oxabicyclo[2.2.1]heptane]
≥ 80%: pest or weed control at 1200 g/ha [1] | pest or weed control at 1200 g/ha [2] | inhibition at 75 g/ha [3] | inhibition at 75 g/ha [4] | inhibition at 75 g/ha [5] | inhibition at 1200 g/ha [6] | inhibition at 75 g/ha [7] | inhibition at 75 g/ha [8] | inhibition at 1200 g/ha [9] | inhibition at 1200 g/ha [10] | inhibition at 1200 g/ha [11] | inhibition at 1200 g/ha [12] | inhibition at 75 g/ha [13] | inhibition at 1200 g/ha [14]
